According to BindingDB's records for patent US9790180 (REGENACY PHARMACEUTICALS, LLC, 2017):

Assays:
[1] = molecular target: Histone deacetylase 2 (Homo sapiens, UniProt Q92769)
[2] = molecular target: Histone deacetylase 3 (Homo sapiens, UniProt O15379)
Chain of Histone deacetylase 3 (O15379 whole entry): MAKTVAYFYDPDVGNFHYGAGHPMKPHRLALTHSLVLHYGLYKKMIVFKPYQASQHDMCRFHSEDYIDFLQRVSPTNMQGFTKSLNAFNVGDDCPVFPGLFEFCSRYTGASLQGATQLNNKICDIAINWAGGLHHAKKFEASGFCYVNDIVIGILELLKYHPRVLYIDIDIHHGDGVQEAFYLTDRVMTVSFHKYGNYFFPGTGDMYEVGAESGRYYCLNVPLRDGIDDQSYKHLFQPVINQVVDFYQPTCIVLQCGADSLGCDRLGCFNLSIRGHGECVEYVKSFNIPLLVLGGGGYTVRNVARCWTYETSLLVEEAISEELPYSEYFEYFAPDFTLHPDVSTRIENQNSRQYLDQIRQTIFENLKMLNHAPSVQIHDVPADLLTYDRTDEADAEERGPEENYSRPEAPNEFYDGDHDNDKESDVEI

Chain of Histone deacetylase 2 (Q92769 whole entry): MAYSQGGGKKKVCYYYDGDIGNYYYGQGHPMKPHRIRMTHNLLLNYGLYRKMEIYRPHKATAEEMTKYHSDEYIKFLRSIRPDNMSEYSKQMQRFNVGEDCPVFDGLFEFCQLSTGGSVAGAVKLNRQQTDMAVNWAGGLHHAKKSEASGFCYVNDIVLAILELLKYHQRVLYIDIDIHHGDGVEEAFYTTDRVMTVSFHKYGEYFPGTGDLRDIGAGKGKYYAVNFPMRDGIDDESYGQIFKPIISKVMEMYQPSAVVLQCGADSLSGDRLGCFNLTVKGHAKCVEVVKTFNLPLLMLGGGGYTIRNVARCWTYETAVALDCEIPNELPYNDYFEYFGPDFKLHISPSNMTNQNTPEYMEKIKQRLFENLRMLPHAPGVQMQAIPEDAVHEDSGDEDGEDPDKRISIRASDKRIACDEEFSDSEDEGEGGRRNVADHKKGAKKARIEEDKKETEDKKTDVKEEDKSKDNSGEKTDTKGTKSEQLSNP

Q: How did the IC50 [1] turn out when CN(c1ncc(C(=O)Nc2cc(-c3ccccc3)ccc2N)cn1)C1CCN(C(=O)Cc2c[nH]c3ccccc23)CC1 [US9790180, ID 033] was run?
A: 211 nM

Q: What about the IC50 [2] of the same molecule?
A: > 2000 nM

Q: What does the source list for Nc1ccc(-c2ccccc2)cc1NC(=O)c1cnc(NC2CCN(C(=O)Cc3c[nH]c4ccccc34)CC2)nc1 [US9790180, ID 035]?
A: IC50 [1]: 196 nM; IC50 [2]: 1400 nM

Q: What does the source list for CC1(Nc2ncc(C(=O)Nc3cc(-c4ccccc4)ccc3N)cn2)CCNCC1 [US9790180, ID 041]?
A: IC50 [1]: 26 nM; IC50 [2]: 252 nM
